According to US20050080113A1, “Medicinal compositions” (priority 2001, published 2005):
One block for each compound: values may come before it.

Columns and labels:
[1] = tested on: TNF-α production in THP-1 cells; experiment: Measurement of inhibitory activity of TNF-α production (LPS-stimulated THP-1 cells, ELISA), Reference Example K 2; type: cell-based; details: Homo sapiens, Reference Example H compounds, LPS 5 μg/mL, 4 hours, read-out: IC50 (inhibition of TNF-α production)
Experimental: THP-1 cells cultured in a PRMI 1640 medium (Life Technologies, Inc., USA) containing 1% inactivated fetal bovine serum (Life Technologies, Inc.) and 10 mM HEPES (pH 7.5) were inoculated on a 96 well plate to give 1×10^5 cells/well, then, 1 μL of a sample compound dissolved in DMSO was added. After incubation for 1 hour at 37° C. in a CO2 incubator, LPS (Wako Pure Chemical Industries Ltd.) was added to give a final concentration of 5 μg/mL. After incubation for 4 hours at 37° C. in a CO2 incubator, the supernatant was obtained by centrifugal separation. The TNF-α concentration in the supernatant was measured by ELISA (R&D Systems, Quantikine Kit). The concentration (IC50 value) of a sample compound necessary for inhibiting 50% of TNF-α production was calculated by PRISM 2.01 (GraphPad Software).

human p38 MAP kinase = target: T1, human p38 MAP kinase (Homo sapiens, UniProt Q16539); experiment: Measurement of the p38 MAP kinase inhibitory activity, 32P uptake into Myelin Basic Protein (Reference Example F 2); type: biochemical; details: active form p38 MAP kinase, 30° C. 60 minutes, read-out: IC50 (p38 MAP kinase inhibitory activity, uptake of 32P into acid insoluble fraction)
T1 construct: made in house; host or cells: Sf-21 insect cells, baculovirus (BAC-HP38 co-infected with BAC-caMKK3)
Experimental: The genetic manipulations described below were according to the methods described in the book (Maniatis et al., Molecular Cloning, Cold Spring Harbor Laboratory, 1989) or a method described in the protocol attached to the reagent.
(1) Cloning of Human p38 MAP Kinase Gene and Preparation of Recombinant Baculovirus
Cloning of human p38 MAP kinase gene was performed by a PCR method using a primer set P38 U: 5′-[…]-3′ [SEQ ID NO:9] and PAG-L: 5′-[…]-3′ [SEQ ID NO:10] made by reference to the base sequence of p38 MAP kinase gene reported by Han et al. (Science 265 (5173), 808 811 (1994)) and employing kidney cDNA (Toyobo, QUICK-Clone cDNA) as a template.
A PCR reaction was performed by a Hot Start method using AmpliWax PCR Gem 100 (Takara Shuzo). As the lower mixed solution, 2 μL 10×LA PCR Buffer, 3 μL 2.5 mM dNTP solution, each 2.5 μL of 12.5 μM primer solution, and 10 μL sterile distilled water were mixed. As the upper mixed solution, 1 μL human cardiac cDNA (1 ng/mL) as a template, 3 μL 10×LA PCR Buffer, 1 μL 2.5 mM dNTP solution, 0.5 μL TaKaRa LA Taq DNA polymerase (Takara Shuzo), and 24.5 μL sterile distilled water were mixed. One AmpliWax PCR Gem 100 (Takara Shuzo) was added to the prepared lower mixed solution to treat at 70° C. for 5 minutes and for 5 minutes in an ice and, thereafter, the upper mixed solution was added to prepare a reaction solution for PCR. A tube containing the reaction solution was set at a thermal cycler (Perkin Elmer), which was treated at 95° C. for 2 minutes. Further, after repeating 35 times a cycle of 15 seconds at 95° C. and 2 minutes at 68° C., treatment was performed at 72° C. for 8 minutes. The resulting PCR product was subjected to agarose gel (1%) electrophoresis, 1.1 kb DNA fragment containing p38 MAP kinase gene was recovered from the gel and, thereafter, which was inserted into pT7Blue-T vector (Takara Shuzo) to make the plasmid pHP38.
The 4.8 kb XhoI-KpnI fragment of the plasmid pFASTBAC1 (CIBCOBRL) and the 1.1 kb XhoI-Kpn fragment of the above plasmid pHP38 were ligated to make the plasmid pFBHP38.
The plasmid pFBHP38 and BAC-TO-BAC Baculovirus Expression System (GIBCOBRL) were used to prepare the recombinant Baculovirus virusstock BAC-HP38.
(2) Cloning of Human MKK3 Gene and Preparation of Recombinant Baculovirus
Cloning of human MKK3 gene was performed by a PCR method using a primer set MKK-U: 5′-[…]-3′ [SEQ ID NO:11] and MKK-L: 5′-[…]-3′ [SEQ ID NO:12] made by reference to the base sequence of MKK3 gene reported by Derijard, B. et al., Science 267 (5198), 682 685 (1995) and using kidney cDNA (Toyobo, QUICK-Clone cDNA).
A PCR reaction was performed by a Hot Start method using AmpliWax PCR Gem 100 (Takara Shuzo). As the lower mixed solution, 2 μL 10×LA PCR Buffer, 3 μL 2.5 mM dNTP solution, each 2.5 μL of 12.5 μM primer solution, and 10 μL sterile distilled water were mixed. As the upper mixed solution, 1 μL human kidney cDNA (1 ng/mL), 3 μL 10×LA PCR Buffer, 1 μL 2.5 mM dNTP solution, 0.5 μL TaKaRa LA taq DNA polymerase (Takara Shuzo) and 24.5 μL sterile distilled water were mixed. One AmpliWax PCR Gem 100 (Takara Shuzo) was added to the prepared lower mixed solution to treat at 70° C. for 5 minutes and for 5 minutes in ice and, thereafter, the upper mixed solution was added to prepare a reaction solution for PCR. A tube containing the reaction solution was set at a thermal cycler (Perkin Elmer), which was treated at 95° C. for 2 minutes. Further, after repeating 35 times a cycle of 15 seconds at 95° C. and 2 minutes at 68° C., treatment was performed at 72° C. for 8 minutes. The resulting PCR product was subjected to agarose gel (1%) electrophoresis, 1.0 kb DNA fragment containing MKK3 gene was recovered from the gel and, thereafter, which was inserted into pT7Blue-T vector (Takara Shuzo) to make the plasmid pHMKK3. […]

CYP3A4 = CYP3A4 (Homo sapiens, UniProt P08684); experiment: Measurement of CYP3A4 inhibitory activity (testosterone 6β-hydroxylation), Example 3; type: in vitro ADME; details: CYP3A4 enzyme preparation with control microsomes, pH 7.4, probe testosterone (100 μM; 6β-hydroxylation), CYP3A4, test substance 10 μM, 100 μM testosterone, 37° C. 30 min, read-out: inhibitory rate (%) at 10 μM
Experimental: 10 pmol/mL CYP3A4, 100 μM testosterone, 1/10 volume of the reaction mixture of NADPH generating system and test substance (10 μM) were added to a 50 mM phosphate buffer (pH 7.4) and control microsome was added to adjust the final concentration of protein to 1.0 mg/mL. The reaction mixture was prepared and reacted at 37° C. for 30 min. (amount of total reaction solution 100 μL). The reaction was quenched by the addition of 100 μL of acetonitrile. After stirring, 100 μL of distilled water was added and the mixture was further stirred. A supernatant obtained by centrifugation (15000 rpm) for 10 min. was injected to HPLC by 80 μL and concentration of 6 β-hydroxytestosterone produced by the reaction was measured.
For preparation of the NADPH generating system, 1 volume of 50 mM NADP (β-nicotinamide adenine dinucleotide oxidized type), 1 volume of 0.5 M glucose-6 phosphate, 5 volumes of 0.1 M magnesium chloride, 1 volume of 150 unit/mL glucose-6-phosphate […] and 2 volumes of distilled water were mixed.

T1 sequence (Q16539 whole entry): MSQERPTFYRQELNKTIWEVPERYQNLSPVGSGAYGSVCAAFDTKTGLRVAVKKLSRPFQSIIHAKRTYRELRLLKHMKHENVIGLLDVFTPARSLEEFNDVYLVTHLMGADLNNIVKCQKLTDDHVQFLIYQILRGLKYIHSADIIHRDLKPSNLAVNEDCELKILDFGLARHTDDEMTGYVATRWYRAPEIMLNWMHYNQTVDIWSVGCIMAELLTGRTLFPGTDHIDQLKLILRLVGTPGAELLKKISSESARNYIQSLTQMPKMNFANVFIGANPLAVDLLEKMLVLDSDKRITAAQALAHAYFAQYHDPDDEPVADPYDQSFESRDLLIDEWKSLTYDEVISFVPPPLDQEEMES
CYP3A4, sequence (P08684 whole entry): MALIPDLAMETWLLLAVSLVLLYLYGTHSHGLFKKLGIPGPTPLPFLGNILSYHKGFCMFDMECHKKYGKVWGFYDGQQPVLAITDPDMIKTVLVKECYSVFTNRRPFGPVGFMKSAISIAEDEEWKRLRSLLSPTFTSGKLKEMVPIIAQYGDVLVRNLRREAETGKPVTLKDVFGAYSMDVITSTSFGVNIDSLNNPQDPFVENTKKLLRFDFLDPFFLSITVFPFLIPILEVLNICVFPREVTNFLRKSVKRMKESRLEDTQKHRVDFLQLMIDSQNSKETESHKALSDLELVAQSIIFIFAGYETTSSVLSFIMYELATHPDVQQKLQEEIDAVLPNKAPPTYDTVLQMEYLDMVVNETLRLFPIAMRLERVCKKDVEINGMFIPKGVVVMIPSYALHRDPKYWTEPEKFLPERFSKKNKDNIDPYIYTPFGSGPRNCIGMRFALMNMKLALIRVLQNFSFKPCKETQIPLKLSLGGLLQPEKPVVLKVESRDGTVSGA

IC50 [1]: 82 nM
Compound: Cc1cccc(-c2nc(N(C)C(=O)c3ccc(C)nc3)sc2-c2ccnc(NC3CCCC3)c2)c1 [46-4]

IC50 (human p38 MAP kinase): 430 nM
Compound: Cc1cc(C)cc(-c2nc(N)sc2-c2ccnc(OCc3ccccc3)c2)c1 [D 1, [4-(3,5-dimethylphenyl)-5-(2-phenylmethyloxy-4-pyridyl)-1,3-thiazol-2-yl]amine]

IC50 (human p38 MAP kinase): 63 nM
Compound: COc1ccc(-c2nc(NC(=O)c3ccccc3)sc2-c2ccnc(NC(=O)c3ccccc3)c2)cc1 [D 2, N-[4-[2-benzoylamino-4-(4-methoxyphenyl)-1,3-thiazol-5-yl]-2-pyridyl]benzamide]

IC50 (human p38 MAP kinase): 29 nM
Compound: Cc1cc(C)cc(-c2nc(N)sc2-c2ccnc(NC(=O)c3ccccc3)c2)c1 [D 5, N-[4-[2-amino-4-(3,5-dimethylphenyl)-1,3-thiazol-5-yl]-2-pyridyl]benzamide]

inhibition at 30 min, 10 μM (CYP3A4): < 30%
Compound: CCc1nc(-c2cccc(C)c2)c(-c2ccnc(NCCCc3ccccc3)c2)s1 [D 19-4, N-[4-[2-ethyl-4-(3-methylphenyl)-1,3-thiazol-5-yl]-2-pyridyl]-N-(3-phenylpropyl)amine]

inhibition at 30 min, 10 μM (CYP3A4): < 30%
Compound: CCc1nc(-c2cccc(C)c2)c(-c2ccnc(F)c2)s1 [H 11, 2-ethyl-5-(2-fluoro-4-pyridyl)-4-(3-methylphenyl)-1,3-thiazole]

inhibition at 30 min, 10 μM (CYP3A4): < 30%
Compound: CCc1nc(-c2cccc(C)c2)c(-c2ccnc(C)c2)s1 [H 13, 2 ethyl-4 (3 methylphenyl)-5 (2 methyl-4 pyridyl)-1,3 thiazole]

inhibition at 30 min, 10 μM (CYP3A4): < 30%
Compound: CCc1nc(-c2cccc(C)c2)c(-c2ccnc(N)c2)s1 [H 22, 4-[2-ethyl-4-(3-methylphenyl)-1,3-thiazol-5-yl]-2-pyridylamine]

inhibition at 30 min, 10 μM (CYP3A4): < 30%
Compound: CCc1nc(-c2cccc(C)c2)c(-c2ccnc(NC(C)=O)c2)s1 [H 29-2, N-[4-[2-ethyl-4-(3-methylphenyl)-1,3-thiazol-5-yl]-2-pyridyl]acetamide]

inhibition at 30 min, 10 μM (CYP3A4): < 30%
Compound: CCc1nc(-c2cccc(C)c2)c(-c2ccnc(Cl)c2)s1 [H 69, 5 (2 chloro-4 pyridyl)-2 ethyl-4 (3 methylphenyl)-1,3-thiazole]

melting point: 128 to 129 °C
Compound: CCc1nc(-c2cccc(OC)c2)c(-c2ccnc(NC(=O)Cc3ccccc3)c2)s1 [L 68-10, N-[4 [2 ethyl-4 (3-methoxyphenyl)-1,3 thiazol-5 yl]-2 pyridyl)phenylacetamide]

melting point: 116 to 117 °C
Compound: CCc1nc(-c2cccs2)c(-c2ccnc(NC(=O)c3ccccc3)c2)s1 [L 70-4, N-[4 [2 ethyl-4 (2-thienyl)-1,3 thiazol-5 yl]-2 pyridyl]benzamide]

melting point: 284 to 286 °C
Compound: CC(=O)Nc1nc(-c2cc(C)cc(C)c2)c(-c2ccncc2)s1 [Reference Example A 23-128, N-[4-(3,5-dimethylphenyl)-5-(4-pyridyl)-1,3-thiazol-2-yl]acetamide]

melting point: 302 to 304 °C
Compound: Cc1cc(C)cc(-c2nc(NC(=O)c3ccncc3)sc2-c2ccncc2)c1 [Reference Example A 23-200, N-[4-(3,5-dimethylphenyl)-5-(4-pyridyl)-1,3-thiazol-2-yl]isonicotinamide]
